The first assay addresses recombinant protein Src (Homo sapiens (Human), UniProt P12931). In words: In vitro assay for inhibiting Src kinase activity (biotin-labeled TK substrate, Sa-XL 665, Cryptate-labeled antibody). Type of assay: biochemical. The note with it: read-out: IC50, inhibitory activity against recombinant protein Src. The procedure: After the compound serially diluted with DMSO and a Src recombinant protein were incubated at room temperature for 10 min, the reaction was initiated by the addition of a biotin-labeled TK substrate and ATP. After the mixture was left to stand at room temperature for 40 min Sa-XL 665 and a Cryptate-labeled antibody were added. The fluorescence values at 615 nm and 665 nm were measured, and the ratio of 665 nm to 615 nm was calculated. The inhibition percentages and IC50 of the compounds were calculated compared to the DMSO group.
Sequence of recombinant protein Src (P12931 whole entry, looked up): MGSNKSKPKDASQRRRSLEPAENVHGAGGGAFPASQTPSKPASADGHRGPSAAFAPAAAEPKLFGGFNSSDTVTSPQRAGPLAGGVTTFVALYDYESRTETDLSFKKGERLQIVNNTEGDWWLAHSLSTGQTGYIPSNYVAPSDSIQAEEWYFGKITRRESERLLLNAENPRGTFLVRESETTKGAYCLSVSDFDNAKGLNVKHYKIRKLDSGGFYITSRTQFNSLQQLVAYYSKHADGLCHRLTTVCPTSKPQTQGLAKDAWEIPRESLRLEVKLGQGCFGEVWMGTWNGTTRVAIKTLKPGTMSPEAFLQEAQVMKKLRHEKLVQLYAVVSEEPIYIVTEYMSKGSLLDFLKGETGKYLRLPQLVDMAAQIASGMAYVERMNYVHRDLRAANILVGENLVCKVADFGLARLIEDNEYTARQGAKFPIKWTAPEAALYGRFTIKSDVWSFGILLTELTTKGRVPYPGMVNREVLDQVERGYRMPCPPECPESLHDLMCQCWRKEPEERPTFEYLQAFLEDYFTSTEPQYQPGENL
On to `CN(C)C1CCN(CCn2nc(-c3ccc(NC(=O)OC(C)(C)C)c4c3OCO4)c3c(N)ncnc32)CC1` [Compound 1], for which the 50% inhibitory concentration (IC50) is no more than 10 nM.
On the same count and under the same terms, for `CN(C)C1CCN(CCn2nc(-c3ccc(NC(=O)OC4CC4)c4c3OCO4)c3c(N)ncnc32)CC1` [Compound 2] the value was no more than 10 nM; for `CN(C)C1CCN(CCn2nc(-c3ccc(NC(=O)OC4(C)CC4)c4c3OCO4)c3c(N)ncnc32)CC1` [Compound 3], no more than 10 nM; for `CN(C)C1CCN(CCn2nc(-c3ccc(NC(=O)OC4CCC4)c4c3OCO4)c3c(N)ncnc32)CC1` [Compound 4], no more than 10 nM.
Same read-out and setting: for `CN(C)C1CCN(CCn2nc(-c3ccc(NC(=O)OC4(C)CCC4)c4c3OCO4)c3c(N)ncnc32)CC1` [Compound 5] the value was no more than 10 nM; for `CN(C)C1CCN(CCn2nc(-c3ccc(NC(=O)OC4C5CC4C5)c4c3OCO4)c3c(N)ncnc32)CC1` (stereo not drawn) [Compound 6], no more than 10 nM.
The same measure, in the same setting: then `CN(C)C1CCN(CCn2nc(-c3ccc(NC(=O)OC45CC(C4)C5)c4c3OCO4)c3c(N)ncnc32)CC1` [Compound 7], with no more than 10 nM; and `CC(C)OC(=O)Nc1ccc(-c2nn(CCN3CCC(N(C)C)CC3)c3ncnc(N)c23)c2c1OCO2` [Compound 8], with 10 to 50 nM.
On to `CCOC(=O)Nc1ccc(-c2nn(CCN3CCC(N(C)C)CC3)c3ncnc(N)c23)c2c1OCO2` [Compound 9], for which the IC50 lay within 10 to 50 nM.
As for `CN(C)C1CCN(CCn2nc(-c3ccc(NC(=O)OC4CC(F)(F)C4)c4c3OCO4)c3c(N)ncnc32)CC1` [Compound 12], the IC50 is no more than 10 nM.
Still for that read-out and setting: for `CN(C)C1CCN(CCn2nc(-c3ccc(NC(=O)OC4CCCC4)c4c3OCO4)c3c(N)ncnc32)CC1` [Compound 13] the value was 10 to 50 nM.
For the compound `CN(C)C1CCN(CCn2nc(-c3ccc(NC(=O)OC4COC4)c4c3OCO4)c3c(N)ncnc32)CC1` [Compound 14], the IC50 is no more than 10 nM.
Still for that read-out and setting: for `CN(C)C1CCN(CCn2nc(-c3cc(F)c(NC(=O)OC(C)(C)C)c4c3OCO4)c3c(N)ncnc32)CC1` [Compound 17] the value was 10 to 50 nM; for `CN(C)C1CCN(CCn2nc(-c3c(F)cc(NC(=O)OC(C)(C)C)c4c3OCO4)c3c(N)ncnc32)CC1` [Compound 18], 10 to 50 nM; for `CN(C)C1CCN(CCn2nc(-c3cnc(NC(=O)OC(C)(C)C)c4c3OCO4)c3c(N)ncnc32)CC1` [Compound 19], 10 to 50 nM.
Take `CN(C)C1CCN(CCn2nc(-c3ncc(NC(=O)OC(C)(C)C)c4c3OCO4)c3c(N)ncnc32)CC1` [Compound 20]: the IC50 lay within 10 to 50 nM.
Same read-out and setting: then `CN(C1CC1)C1CCN(CCn2nc(-c3ccc(NC(=O)OC(C)(C)C)c4c3OCO4)c3c(N)ncnc32)CC1` [Compound 36], with no more than 10 nM.
Same read-out and setting: then `CC(C)(C)OC(=O)Nc1ccc(-c2nn(CCN3CCC(N4CCCC4)CC3)c3ncnc(N)c23)c2c1OCO2` [Compound 37], with no more than 10 nM; and `CN(C)[C@H]1CCN(CCn2nc(-c3ccc(NC(=O)OC(C)(C)C)c4c3OCO4)c3c(N)ncnc32)C1` [Compound 38], with no more than 10 nM.
`CN(C)[C@@H]1CCN(CCn2nc(-c3ccc(NC(=O)OC(C)(C)C)c4c3OCO4)c3c(N)ncnc32)C1` [Compound 39]: the IC50 is no more than 10 nM.
For `CC(C)(C)OC(=O)Nc1ccc(-c2nn(CCN3CCN(CCO)CC3)c3ncnc(N)c23)c2c1OCO2` [Compound 41], the half-inhibitory concentration (IC50) was no more than 10 nM.
Consider `CN(C)CCN1CCN(CCn2nc(-c3ccc(NC(=O)OC(C)(C)C)c4c3OCO4)c3c(N)ncnc32)CC1` [Compound 42], for which the IC50 is no more than 10 nM.
With `CN(C)CC1CCN(CCn2nc(-c3ccc(NC(=O)OC(C)(C)C)c4c3OCO4)c3c(N)ncnc32)CC1` [Compound 43], the IC50 is no more than 10 nM.
On the same count and under the same terms, for `CN(C)CCC1CCN(CCn2nc(-c3ccc(NC(=O)OC(C)(C)C)c4c3OCO4)c3c(N)ncnc32)CC1` [Compound 44] the value was no more than 10 nM; for `COCCN1CCN(CCn2nc(-c3ccc(NC(=O)OC(C)(C)C)c4c3OCO4)c3c(N)ncnc32)CC1` [Compound 45], no more than 10 nM; for `CC(C)(C)OC(=O)Nc1ccc(-c2nn(CCN3CCC(C#N)CC3)c3ncnc(N)c23)c2c1OCO2` [Compound 46], no more than 10 nM.
`CN1CCN(C2CCN(CCn3nc(-c4ccc(NC(=O)OC(C)(C)C)c5c4OCO5)c4c(N)ncnc43)CC2)CC1` [Compound 47]: the IC50 was no more than 10 nM.
Same read-out and setting: then `CN1CC(OC(=O)Nc2ccc(-c3nn(CCN4CCC(N5CCC5)CC4)c4ncnc(N)c34)c3c2OCO3)C1` [Compound 48], with no more than 10 nM; and `CN1CCC2(CC1)CCN(CCn1nc(-c3ccc(NC(=O)OC(C)(C)C)c4c3OCO4)c3c(N)ncnc31)CC2` [Compound 49], with no more than 10 nM.
The same measure, in the same setting: for `CN(C)CCN(C)CCn1nc(-c2ccc(NC(=O)OC(C)(C)C)c3c2OCO3)c2c(N)ncnc21` [Compound 50] the value was no more than 10 nM; for `CN(C)C1CCN(CCn2nc(-c3ccc(NC(=O)OC(C)(C)C)c4c3OC(F)(F)O4)c3c(N)ncnc32)CC1` [Compound 51], no more than 10 nM.
Same read-out and setting: then `CN(C)C1CCN(CCCn2nc(-c3ccc(NC(=O)OC(C)(C)C)c4c3OCO4)c3c(N)ncnc32)CC1` [Compound 52], with no more than 10 nM; and `CC(C)(C)OC(=O)Nc1ccc(-c2nn(CCN3CCC(N4CCOCC4)CC3)c3ncnc(N)c23)c2c1OCO2` [Compound 57], with no more than 10 nM.
`COC1CCN(CCn2nc(-c3ccc(NC(=O)OC(C)(C)C)c4c3OCO4)c3c(N)ncnc32)CC1` [Compound 58]: the IC50 was no more than 10 nM.
With `COc1cc(-c2nn(CCN3CCC(N(C)C)CC3)c3ncnc(N)c23)ccc1NC(=O)OC1CCC1` [Compound 60], the half-inhibitory concentration (IC50) was no more than 10 nM.
Regarding `COc1cc(-c2nn(CCN3CCC(N(C)C)CC3)c3ncnc(N)c23)ccc1NC(=O)OC1(C)CCC1` [Compound 61], the IC50 was no more than 10 nM.
Regarding `COc1cc(-c2nn(CCN3CCC(N(C)C4CC4)CC3)c3ncnc(N)c23)ccc1NC(=O)OC(C)(C)C` [Compound 62], the IC50 was no more than 10 nM.
On the same count and under the same terms, for `COc1cc(-c2nn(CCN3CCC(N(C)C)CC3)c3ncnc(N)c23)ccc1NC(=O)OC1CC1` [Compound 63] the value was no more than 10 nM; for `COc1cc(-c2nn(CCN3CCC(N(C)C)CC3)c3ncnc(N)c23)ccc1NC(=O)OC1C2CC1C2` (stereo not drawn) [Compound 64], no more than 10 nM; for `COc1cc(-c2nn(CCN3CCC(N(C)C)CC3)c3ncnc(N)c23)ccc1NC(=O)OC12CC(C1)C2` [Compound 65], no more than 10 nM.
The same measure, in the same setting: then `COc1cc(-c2nn(CCN3CCC(N(C)C4CC4)CC3)c3ncnc(N)c23)ccc1NC(=O)OC1(C)CCC1` [Compound 68], with no more than 10 nM; and `COc1cc(-c2nn(CCN3CCC(N(C)C4CC4)CC3)c3ncnc(N)c23)ccc1NC(=O)OC1(C)CC1` [Compound 69], with no more than 10 nM; and `COc1cc(-c2nn(CCN3CCC(N(C)C)CC3)c3ncnc(N)c23)ccc1NC(=O)OC1CC(F)(F)C1` [Compound 70], with no more than 10 nM.

In the next assay the test system is PC3 cells. In words: In vitro anti-proliferative activity against PC3 cells (agarose, 7 days). It counts as cell-based. The note with it: Homo sapiens, PC-3, 168 h, 7 days of incubation. The procedure: PC3 cells were mixed with 0.4% agarose at 1200 cells/well, and the mixture was seeded on 0.6% agarose. The compound serially diluted was added, and the cell number was measured after 7 days of incubation. The inhibition percentages and IC50 of the compounds were calculated compared to the DMSO group.
`CN(C)C1CCN(CCn2nc(-c3ccc(NC(=O)OC(C)(C)C)c4c3OCO4)c3c(N)ncnc32)CC1` [Compound 1] gave an IC50 of 3.5 nM.
The compound `CN(C)C1CCN(CCn2nc(-c3ccc(NC(=O)OC4(C)CC4)c4c3OCO4)c3c(N)ncnc32)CC1` [Compound 3] yielded a half-inhibitory concentration (IC50) of 4.8 nM.
In the case of `CN(C)C1CCN(CCn2nc(-c3ccc(NC(=O)OC4(C)CCC4)c4c3OCO4)c3c(N)ncnc32)CC1` [Compound 5], 4.2 nM corresponded to half-maximal inhibition (IC50).
On the same count and under the same terms, then `CC(C)(C)OC(=O)Nc1ccc(-c2nn(CCN3CCC(N4CCCC4)CC3)c3ncnc(N)c23)c2c1OCO2` [Compound 37], with 11.7 nM; and `COc1cc(-c2nn(CCN3CCC(N(C)C)CC3)c3ncnc(N)c23)ccc1NC(=O)OC1(C)CCC1` [Compound 61], with 5.6 nM.
`COc1cc(-c2nn(CCN3CCC(N(C)C4CC4)CC3)c3ncnc(N)c23)ccc1NC(=O)OC(C)(C)C` [Compound 62] displayed an IC50 of 10.1 nM.
As to `COc1cc(-c2nn(CCN3CCC(N(C)C4CC4)CC3)c3ncnc(N)c23)ccc1NC(=O)OC1(C)CCC1` [Compound 68], the half-inhibitory concentration (IC50) amounted to 15.2 nM.
Still for that read-out and setting: for `COc1cc(-c2nn(CCN3CCC(N(C)C4CC4)CC3)c3ncnc(N)c23)ccc1NC(=O)OC1(C)CC1` [Compound 69] the value was 12.5 nM.

One may read the IC50 as the concentration that inhibits the measured activity by half.

The values above are taken from patent US20250042904A1, “COMPOUNDS USED AS SRC INHIBITORS” (WIGEN BIOMEDICINE TECHNOLOGY (SHANGHAI) CO., LTD., priority 2021, published 2025).
